The text below walks through data of US7427590B2, “Neurothrophic components of the ADNF I complex” (The United States of America as represented by the …, priority 2001, dated 2008).

“Also recorded” adds a separate entry of the source. Like-named read-outs stand apart in the source and are kept apart here. Non-standard residues stand in square brackets, D forms with d. Residues, ends and D or L forms follow the SMILES beside them. *: point of attachment. Sta = CC(C)C[C@H](N)[C@@H](O)CC(=O)O; Isovaleryl = CC(C)CC(=O)*

Assay [1] relates to 14 kDa purified ADNF I complex. Format: cell-based. As to conditions: pre-treatment of ADNF I, 1 μM TTX; for Effect on survival-promoting peak of component II (10^−8 dilution): 1 μM pepstatin A or 10 μg/ml E-64; for Effect on survival-promoting peak of component I (10^−12 dilution) / Effect on survival-promoting peak of component III (10^−5 dilution): 1 μM pepstatin A, 10 μg/ml E-64 or 0.1 mM subtilisin V inhibitor.

Assay [2] relates to component II of the ADNF I complex. The experiment in a line: Blockade of component II protease activity in cell-free protease assay. Format: biochemical. As to conditions: 10 μl of pepstatin stock (1 mg/ml methanol, diluted 1:100). The protocol:
FIG. 28. A time course of component II (see FIGS. 26 and 27) in a cell-free protease assay using Bz-Arg-Gly-Phe-Phe-Pro-MβNA, HCl (Cathepsin D substrate). The conditions of the assay are as follows: 10 μl of substrate (5 mg dissolved in 100 μl of DMSO (dimethyl sulfoxide), diluted to 1 ml of water), 10 μl of 10 mM CaCl2; 50 μl of component II (10^−8 dilution of the preparation characterized in FIGS. 26 and 27); and 30 μl of buffer (0.5 M dibasic phosphate, pH 7.8). For this assay, buffer, enzyme, calcium were added to 96 well culture trays. Based on glycoprotein alpha-1 acid standards on NCHO capillary, the optimum protease activity is observed at 1 fM amounts of components II.
FIG. 29. […] In culture wells treated with pepstatin, 10 μl of the stock solution (1 mg dissolved in 1 ml of methanol, diluted 1:100 with water) was added. In control wells, an addition 10 ul of methanol/water (1:100 dilution in water) alone was added. Fluorescence changes indicative of peptide subtract cleavage were monitored as described in FIG. 28.

The subject of assay [3] is dissociated cerebral cortical cultures. The format is cell-based, rat.

Take `CC(C)C[C@H](NC(=O)[C@H]1O[C@@H]1C(=O)O)C(=O)NCCCCN=C(N)N` [E-64]: in assay [1], the “Effect on survival-promoting peak of component II (10^−8 dilution)” value (from here on “Effect … (10^−8 dilution)”) was “not diminished”, the “Effect on survival-promoting peak of component I (10^−12 dilution)” value (from here on “Effect … (10^−12 dilution)”) is on record as “inhibited; also recorded: prevented; also recorded: blocked” and the “Effect on survival-promoting peak of component III (10^−5 dilution)” value (shortened to “Effect … (10^−5 dilution)”) is “inhibited; also recorded: prevented; also recorded: blocked”.

As to `CC(C)CC(=O)N[C@H](C(=O)N[C@H](C(=O)N[C@@H](CC(C)C)[C@@H](O)CC(=O)N[C@@H](C)C(=O)N[C@@H](CC(C)C)[C@@H](O)CC(=O)O)C(C)C)C(C)C` [Pepstatin A] (Isovaleryl-VV[Sta]A[Sta]-OH), the “Effect on component II-mediated increases in protease activity” value in assay [2] is on record as “prevent the component II-mediated increases in protease activity”. In assay [1], the “Effect … (10^−8 dilution)” value is listed as “prevented”, the “Effect … (10^−12 dilution)” value was “small decrease” and the “Effect … (10^−5 dilution)” value was “not affected”. Besides, in assay [1] (listed as pepstatin A), the “Effect … (10^−8 dilution)” value is listed as “blocked”. Besides, in assay [1] (listed as peptstatin A), the “Effect … (10^−8 dilution)” value is “inhibited”.

For `C[C@H](NC(=O)OC(C)(C)C)C(=O)N1CCC[C@H]1C(=O)N[C@@H](Cc1ccccc1)C(=O)NOC(=O)c1ccc(Cl)cc1` [subtilisin V inhibitor, Boc-Ala-Pro-Phe-NHO-Bz-pCl], in assay [1], the “Effect … (10^−12 dilution)” value was “enhanced” and the “Effect … (10^−5 dilution)” value is listed as “enhanced”.

For the compound GPTADITLTK, the “Survival-promoting activity of digest peptide fractions (neuronal cell counts)” value in assay [3] is recorded as “Significant increases in neuronal cell counts”.

NNSTTYAPISANVSTALGSTAALPTAAGPV: in assay [3], the “Another peak of activity (concentration)” value is listed as 10^−8 M and the “Survival-promoting activity of digest peptide fractions (neuronal cell counts)” value is recorded as “Significant increases in neuronal cell counts”.

Regarding SESSGTSELLTR, the “Survival-promoting activity of digest peptide fractions (neuronal cell counts)” value in assay [3] is “Significant increases in neuronal cell counts”.
